Article PMC9476706, “Integrating pharmacokinetics and network analysis to investigate the mechanism of Moutan Cortex in blood-heat and blood stasis syndrome” (Chinese Medicine, 2022)

Legend:
[1] = Pharmacokinetic study of nine absorbed components in rat serum after oral RMC extract (UHPLC-DAD); conditions: for AUC / Cmax / MRT / half-life / Tmax: male, Sprague-Dawley, rat, serum, po, 10 mL/kg, oral RMC extract 10 mL/kg (equal to 6 g/mL of RMC) once a day for 7 days, n = 6; for time after which the compound was not detected: BHS-RMC rats;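 as to all read-outs here: BHS model made by subcutaneous yeast suspension then two adrenaline injections with ice-water immersion, normal rats given saline instead, serum analytes quantified by UHPLC-DAD at 254 nm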
Method: Twenty-four male Sprague–Dawley rats (weighing 300 ± 20 g) were purchased from Animal Experiment Center, Guangdong Academy of Medical Sciences (Certificate no. SCXK2013-0002). The rats were kept in an environmentally controlled breeding room at a temperature of 22 ± 2 °C and a relative humidity of 55 ± 10% for 1 week before starting the experiments. They were fed with standard laboratory food and water. Both the animal’s care and the study protocol were conducted according to the National Institutes of Health Guide for the Care and Use of Laboratory Animals, and followed the guidelines of the Ethics Committee of Guangdong Pharmaceutical University.
The rats were randomly divided into following four groups: normal groups (Normal groups), BHS model groups (BHS groups), normal group administrated with RMC extraction (N-RMC group), BHS group administrated with RMC extraction (BHS-RMC group), respectively. N-RMC group and BHS-RMC group rats were respectively orally administrated with RMC extraction (equal to 6 g/mL of RMC) for continuous 7 days at a dose of 10 mL/kg, once a day, 1 hour after the sixth day of administration. The rats in BHS groups and BHS-RMC group were subcutaneously injected with 10% aqueous suspension of yeast (10 mL/kg) and then subcutaneously injected with 0.1 mg/mL adrenaline hydrochloride solution twice (at a dose of 0.8 mL/kg, 4 h apart) while body temperature remained relatively steady high. Those rats were soaked in ice-water for 5 min keeping their heads outside surface between two subcutaneous injections of adrenaline hydrochloride solution [39, 40]. At the same time, the normal groups and N-RMC group rats were injected with the same dose of saline (10 mL/kg) subcutaneously. All rats were fasted for 12 h but free for water before taking the blood. On the seventh day, 0.3 mL blood samples were collected from fossa orbitalis vein at the time point of 0.083, 0.25, 0.5, 0.75, 1, 2, 3, 4, 6, 8, 10, 12 and 24 h after oral administration. All blood samples were immediately centrifuged at 13,680 (× g) for 10 min at 4 °C and the serum samples were obtained and stored at −80 °C until analysis.
Firstly, 100 μL serum was spiked with 10 μL IS working solution to mix evenly, then 1 mL methanol was added to protein precipitation, and centrifuged at 1520 (× g) for 10 min at 4 °C. Secondly, the supernatant was collected with a clean tube carefully and filtered through 0.22 μm microporous filter head. Thirdly, the filtrate was evaporated to dryness under a stream of nitrogen at 40 °C. Finally, the residue was dissolved in 100 μL methanol and 10 μL of aliquot was injected into UHPLC-DAD system for analysis.
The chromatography experiment was carried out using UPLC system (Thermo Fisher Scientific, USA). Chromatographic conditions were according to the paper published by our research group [37]. Column: Acquity UPLC® BEH Shield RP18 Column (2.1 mm × 100 mm, 1.7 μm, Waters, USA). The column temperature was maintained at 30 °C. Mobile phase: Acetonitrile (A) and 0.1% (v/v) formic acid in water (B). The gradient conditions: 0–10 min, 5–15% A; 10–20 min, 15–35% A; 20–30 min, 35–95% A; 30–32 min, 95% A. The samples were kept at 4 °C in the auto-sampler. Flow rate and sample size, 0.2 mL/min and 2 μL; column temperature and detection wavelength, 30 °C and 254 nm.
The concentrations of nine components of all samples were processed by PKSolver pharmacokinetics software. Statistical comparisons among groups were performed with GraphPad Prism 8 using a One-Way ANOVA analysis. Data expressed as mean ± SD and a p value ≤ 0.05 was considered to be statistically significant.

F2 = F2 expression in TNF-α induced HUVECs (ELISA, RT-qPCR); assay type: cell-based, Human; conditions: HUVECs + 25 ng/mL TNF-α, 8 h, versus model group; for F2 protein expression: paeonol 50, paeoniflorin 500, quercetin 1, oxypaeoniflorin 500 μg/mL
Method: (§1) After three or four passages, the HUVECs were digested with 0.25% trypsin and seeded in a 6-well plate with a density of 1 × 10^5 cells/mL for ELISA analysis and RT-qPCR. […] Afterwards, take the supernatant and measure according to the ELISA kit, and detect the OD value at the wavelength of 450. […] ChamQTMUniversalSYBR qPCR Master Mix (Vazyme Biotech Co., Ltd, Q711-02) was performed on a Real-time PCR System.

F7 = F7 expression in TNF-α induced HUVECs (ELISA, RT-qPCR); assay type: cell-based, Human; conditions: HUVECs + 25 ng/mL TNF-α, 8 h, versus model group; for F7 protein expression: paeonol 50, paeoniflorin 500, quercetin 1, oxypaeoniflorin 500 μg/mL
Method: as §1

APTT, PT and TT = test: Coagulation test (APTT, PT, TT) in rabbit plasma; conditions: for APTT: 10 μL solution, paeoniflorin 250, oxypaeoniflorin 500, quercetin 1, paeonol 50 μg/mL, blank 13.63 ± 0.49, n = 3; for effect on PT compared with blank / effect on TT compared with blank / effect on prolonging APTT compared with blank: in words
Method: New Zealand white rabbits, after being fasted but with free access to water for 8 h, were anesthetized by intraperitoneal injection of 10.0% chloral hydrate at 0.3 mL/100 g. The blood collected from the carotid artery was anticoagulated with 3.8% sodium citrate (blood and dosage volume ratio of 9:1), and transferred to a vacuum blood-collection tube, which was then slowly inverted and mixed for 3 to 4 times, and centrifuged at 860 (× g) for 10 min to obtain the supernatant. […] Whereafter, 10 μL of monomer solution was added under the kit instructions to determine APTT, PT and TT using coagulation method.

MAPK10 = MAPK10 mRNA expression in TNF-α induced HUVECs (RT-qPCR); assay type: cell-based, Human; conditions: HUVECs + 25 ng/mL TNF-α, 8 h, paeonol 50, paeoniflorin 500, quercetin 1, oxypaeoniflorin 500 μg/mL, versus model group
Method: as §1

F10 = F10 expression in TNF-α induced HUVECs (ELISA, RT-qPCR); assay type: cell-based, Human; conditions: HUVECs + 25 ng/mL TNF-α, 8 h; paeonol 50, paeoniflorin 500, quercetin 1, oxypaeoniflorin 500 μg/mL; versus model group
Method: as §1

APTT = system: APTT; set-up: method as in doi:10.5246/jcps.2018.09.062; conditions: cited from earlier work
AKT = AKT expression in TNF-α induced HUVECs (RT-qPCR); assay type: cell-based, Human; conditions: HUVECs + 25 ng/mL TNF-α, 8 h, oxypaeoniflorin 500 μg/mL, versus model group
Method: as §1

[2] = T1/2, BHS-RMC group (BHS model rats)
[3] = T1/2, N-RMC group (normal rats)
[4] = BHS-RMC versus N-RMC rats, oral RMC extract

Molecule	AUC ([1]; BHS-RMC group (BHS model rats))	AUC ([1]; N-RMC group (normal rats))	Cmax ([1]; BHS-RMC group (BHS model rats))	Cmax ([1]; N-RMC group (normal rats))	MRT ([1]; BHS-RMC group (BHS model rats))	MRT ([1]; N-RMC group (normal rats))	half-life [1, 2]	half-life [1, 3]	Tmax ([1]; BHS-RMC group (BHS model rats))	Tmax ([1]; N-RMC group (normal rats))	F2 protein expression (F2)	F7 protein expression (F7)	APTT (APTT, PT and TT)	effect on PT compared with blank (APTT, PT and TT)	effect on TT compared with blank (APTT, PT and TT)	effect on prolonging APTT compared with blank (APTT, PT and TT)	Cmax increase in BHS-RMC over N-RMC [1, 4]	MAPK10 mRNA expression (MAPK10)	F10 protein expression (F10)	other results
COC(=O)c1ccc(O)cc1 [Methylparaben, methyl paraben]	39.9 ± 1.34 µg·h/mL	22.8 ± 1.34 µg·h/mL	2.16 ± 0.11 µg/mL	6.35 ± 0.53 µg/mL	27.1 ± 1.16 h	7.91 ± 0.56 h	17.9 ± 0.84 h	4.93 ± 0.23 h	1 h	0.75 h	–	–	–	–	–	–	–	–	–	–
O=c1c(O)c(-c2ccc(O)c(O)c2)oc2cc(O)cc(O)c12 [Quercetin, quercetin]	10000 µg·h/mL	7340 ± 166 µg·h/mL	739.9 ± 4.17 µg/mL	643 ± 19.8 µg/mL	20.4 ± 0.66 h	16.6 ± 0.56 h	15.5 ± 0.54 h	9.97 ± 0.35 h	4 h	4 h	significantly declined	significantly declined	15.2 ± 0.387 s	no significant difference	tendency of prolonging	significant effect	15%	significant decrease	significantly declined	–
Cc1oc2c(O)cccc2c(=O)c1O [3,8-Dihydroxy-2-methylchromone, 3,8-dihydroxy-2-methylchromone]	757 ± 8.72 µg·h/mL	660 ± 29.9 µg·h/mL	134 ± 3.26 µg/mL	116 ± 2.12 µg/mL	14.1 ± 1.07 h	6.9 ± 0.68 h	19 ± 1.78 h	4.73 ± 0.29 h	0.75 h	0.75 h	–	–	–	–	–	–	16%	–	–	effect on APTT (APTT): significantly extend
O=Cc1ccc(CO)o1 [5-HMF, 5-hydroxymethylfurfural]	741 ± 20.3 µg·h/mL	1564 ± 4.63 µg·h/mL	111 ± 7.25 µg/mL	413.2 ± 2.01 µg/mL	7.47 ± 0.48 h	4.55 ± 0.03 h	7.33 ± 2.1 h	3.2 ± 0.03 h	0.75 h	3 h	–	–	–	–	–	–	–	–	–	–
O=C(O)c1cc(O)c(O)c(O)c1 [Gallic acid, gallic acid]	1070 ± 72.9 µg·h/mL	1020 ± 26.6 µg·h/mL	180 ± 11.1 µg/mL	127 ± 2.9 µg/mL	10 ± 0.96 h	17.3 ± 0.8 h	6.33 ± 0.45 h	10.8 ± 0.87 h	1 h	–	–	–	–	–	–	–	42%	–	–	AUC increase in BHS-RMC over N-RMC [1, 4]: 5%
COc1ccc(C(C)=O)c(O)c1 [Paeonol, paeonol]	45.5 ± 0.83 µg·h/mL	107 ± 1.23 µg·h/mL	10.4 ± 0.23 µg/mL	11.8 ± 0.13 µg/mL	4.63 ± 0.12 h	12.1 ± 0.17 h	4.37 ± 0.15 h	7.84 ± 0.08 h	0.75 h	0.75 h	significantly declined	significantly declined	17.23 ± 0.35 s	no significant difference	tendency of prolonging	significant effect	–	significant decrease	significantly declined	F2 mRNA expression (F2; paeonol 50 μg/mL, RT-qPCR): no effects; F7 mRNA expression (F7; paeonol 50 μg/mL, RT-qPCR): no effects; time after which the compound was not detected ([1]; oral RMC extract): 8 h; shape of plasma concentration-time profile ([1]; oral RMC extract, both normal and model rats): bimodal (double peak) phenomenon
O=C(O)c1ccccc1 [Benzoic acid, benzoic acid]	2320 ± 71.3 µg·h/mL	1880 ± 217 µg·h/mL	213 ± 5.26 µg/mL	144 ± 4.48 µg/mL	13.3 ± 0.79 h	17 ± 2.76 h	–	–	3 h	4 h	–	–	–	–	–	–	49%	–	–	–
oxypaeoniflorin	–	–	–	–	–	–	–	–	–	–	–	significantly declined	15.63 ± 0.45 s	no significant difference	tendency of prolonging	significant effect	–	significant decrease	significantly declined	expression of AKT (AKT): could decrease
C[C@@]12C[C@@]3(O)O[C@@H](O1)[C@]1(COC(=O)c4ccccc4)[C@H]3C[C@@]12O[C@@H]1O[C@H](CO)[C@@H](O)[C@H](O)[C@H]1O [Paeoniflorin, paeoniflorin]	298 ± 7.6 µg·h/mL	1450 ± 62.3 µg·h/mL	84.2 ± 1.99 µg/mL	201.6 ± 1.86 µg/mL	5.06 ± 0.22 h	15.5 ± 0.94 h	3.6 ± 0.31 h	9.75 ± 0.47 h	0.75 h	–	significantly declined	significantly declined	15.07 ± 0.06 s	no significant difference	tendency of prolonging	significant effect	–	significant decrease	significantly declined	time after which the compound was not detected ([1]; oral RMC extract): 12 h
